PMC10143053, “Probing the Interactions of 31 Mycotoxins with Xanthine Oxidase: Alternariol, Alternariol-3-Sulfate, and α-Zearalenol Are Allosteric Inhibitors of the Enzyme” (Toxins, 2023)
Like-named read-outs stand apart in the source and are kept apart here.

Target: T1, xanthine oxidase (Bos taurus, UniProt P80457)
T1 construct: gene XDH
Assay: biochemical

T1 sequence (P80457 2-1332): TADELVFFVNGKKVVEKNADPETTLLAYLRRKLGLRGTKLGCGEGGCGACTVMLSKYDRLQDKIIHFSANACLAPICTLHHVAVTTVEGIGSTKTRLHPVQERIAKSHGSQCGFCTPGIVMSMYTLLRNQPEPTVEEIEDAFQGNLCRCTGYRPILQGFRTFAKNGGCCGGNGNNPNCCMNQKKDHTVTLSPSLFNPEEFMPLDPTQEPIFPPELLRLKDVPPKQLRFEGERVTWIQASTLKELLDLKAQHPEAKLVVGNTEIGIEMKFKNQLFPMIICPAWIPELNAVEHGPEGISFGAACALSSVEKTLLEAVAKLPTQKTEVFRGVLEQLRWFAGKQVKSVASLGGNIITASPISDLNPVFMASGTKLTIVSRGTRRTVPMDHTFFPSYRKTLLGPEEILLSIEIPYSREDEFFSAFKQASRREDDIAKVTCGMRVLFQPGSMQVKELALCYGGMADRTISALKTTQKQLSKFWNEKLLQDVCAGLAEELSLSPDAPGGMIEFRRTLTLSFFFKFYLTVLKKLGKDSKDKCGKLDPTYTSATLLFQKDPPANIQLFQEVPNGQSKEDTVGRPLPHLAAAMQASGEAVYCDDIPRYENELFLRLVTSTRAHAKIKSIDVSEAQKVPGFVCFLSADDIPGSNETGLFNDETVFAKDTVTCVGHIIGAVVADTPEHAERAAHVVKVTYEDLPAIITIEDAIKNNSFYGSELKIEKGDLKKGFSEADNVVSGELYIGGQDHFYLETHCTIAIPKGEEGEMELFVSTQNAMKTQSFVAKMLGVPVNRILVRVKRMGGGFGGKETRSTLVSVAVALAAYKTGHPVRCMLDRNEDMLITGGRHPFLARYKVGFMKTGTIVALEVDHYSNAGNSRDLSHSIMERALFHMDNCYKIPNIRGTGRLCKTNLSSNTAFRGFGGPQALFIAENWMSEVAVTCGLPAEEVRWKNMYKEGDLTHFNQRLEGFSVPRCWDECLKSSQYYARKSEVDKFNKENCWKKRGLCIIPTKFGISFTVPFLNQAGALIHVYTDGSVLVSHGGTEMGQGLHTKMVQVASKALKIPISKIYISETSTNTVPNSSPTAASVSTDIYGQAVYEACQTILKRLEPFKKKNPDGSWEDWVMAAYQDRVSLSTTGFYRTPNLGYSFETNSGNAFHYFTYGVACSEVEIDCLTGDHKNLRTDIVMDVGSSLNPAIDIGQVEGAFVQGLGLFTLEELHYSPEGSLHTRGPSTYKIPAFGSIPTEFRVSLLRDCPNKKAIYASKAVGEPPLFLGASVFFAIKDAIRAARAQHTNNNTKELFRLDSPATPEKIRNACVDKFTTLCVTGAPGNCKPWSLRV

| SMILES | IC50 | IC50 (read-out: IC50) |
| --- | --- | --- |
| Cc1cc(O)cc2oc(=O)c3c(O)cc(O)cc3c12 [AOH, alternariol] | 10.6 µM | – |
| Cc1cc(OS(=O)(=O)O)cc2oc(=O)c3c(O)cc(O)cc3c12 [AS, alternariol-3-sulfate] | – | 15 µM |
| C[C@H]1CCC[C@H](O)CCC/C=C/c2cc(O)cc(O)c2C(=O)O1 [α-ZEL, α-zearalenol] | – | 17.1 µM |
